Data from patent publication US8163768B2, “1,4-dihydropyridine-fused heterocycles, process for preparing the same, use and compositions containing them” (Aventis Pharma S.A.., priority 2005, dated 2012).

What follows are molecules tested against T1, Aurora2 (Aurora-A) (Homo sapiens, UniProt O14965) (assay: Aurora 2 (Aurora A) kinase radioactivity scintillation assay using nickel chelate Flash plates). Details: 10 nM Aurora-A, 500 nM NuMA substrate, 1 μM ATP with [33P] ATP, 10 mM MgCl2, 30 minutes, 37° C.
T1 construct: Aurora-A: the full length recombinant protein including an N-terminal poly-histidine tail has been expressed in E. coli; poly-histidine (N); made in house; host or cells: E. coli
T1 sequence (O14965 1-403): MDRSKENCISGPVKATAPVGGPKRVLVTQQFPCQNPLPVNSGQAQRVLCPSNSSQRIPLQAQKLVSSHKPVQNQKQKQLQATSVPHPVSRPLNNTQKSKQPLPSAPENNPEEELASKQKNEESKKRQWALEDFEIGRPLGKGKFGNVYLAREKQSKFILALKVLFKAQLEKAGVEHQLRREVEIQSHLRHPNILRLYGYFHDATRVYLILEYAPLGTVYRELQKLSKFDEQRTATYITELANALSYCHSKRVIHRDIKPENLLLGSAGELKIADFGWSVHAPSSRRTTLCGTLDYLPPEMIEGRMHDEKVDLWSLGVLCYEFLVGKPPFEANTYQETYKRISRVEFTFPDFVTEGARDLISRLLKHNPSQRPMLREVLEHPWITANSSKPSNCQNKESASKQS
Format: biochemical
Procedure: Aurora 1 and 2 (Respectively. Aurora B and A)
The inhibitory effect of compounds with respect to the Aurora 1 and 2 kinases is determined with a radioactivity scintillation assay using nickel chelate.
The kinase activity of Aurora is measured by the phosphorylation of NuMA-histidine substrate in the presence of radiolabelled ATP ([^33P] ATP) using 96 well Flash plates where the nickel-chelate is linked to the surface of the microplate. The amount of ^33P incorporated to the substrate NuMA is proportional to the aurora activity.
The Flash plates used are nickel-chelate 96 well plates (Perkin Elmer, model SMP107).
The products to be evaluated are incubated in a 100 μl reaction volume per well in the presence of 10 nM of Aurora-B or Aurora-A, 500 nM of NuMA substrate in the following buffer: 50 mM of NaCl, 5 mM MgCl2, (Aurora-B) or 10 mM MgCl2 (Aurora-A) and 1 mM of DTT at 37° C.
80 μL of enzyme/substrate incubation buffer is distributed in each well, followed by 10 μL of solution of compound to be measured with various concentrations. The reaction is started by adding 1 μM of ATP (final concentration) containing 0.2 μCi of [^33P] ATP (10 μL). After 30 minutes of incubation the reaction is stopped by removal of the reaction mixture and each well is washed twice with 300 μl of buffer Tris/HCl. The radioactivity is measured in each well using a Packard Top count scintillation counter instrument.
The enzymatic activity is expressed as counts per minute obtained in 30 minutes after subtraction of the background noise (reaction medium without enzyme). The measurement is expressed as percentage of inhibition of Aurora activity versus the control. To generate IC50 values, compounds of the invention are tested at different concentration and the percentage of inhibition are plotted as function of compound concentration, IC50s are calculated using the Xlfit 4 curve fitting software.
`Cc1cc(C2C3=C(CNCC3=O)Nc3n[nH]cc32)ccc1O` (centres unmarked) [Example 1, 4-(4-Hydroxy-3-methyl-phenyl)-2,4,6,7,8,9-hexahydro-pyrazolo[3,4-b]-1,7-naphthyridin-5-one; compound with trifluoro-acetic acid] gave an IC50 of 7450 nM.
With `CC(C)(C)c1ccc(Oc2cccc(C3C4=C(CNCC4=O)Nc4n[nH]cc43)c2)cc1` (centres unmarked) [Example 8, 4-[3-(4-tert-Butyl-phenoxy)-phenyl]-2,4,6,7,8,9-hexahydro-pyrazolo[3,4-b]-1,7-naphthyridin-5-one; compound with trifluoro-acetic acid] the IC50 was 696 nM.
Molecule `Cc1ccc(Oc2cccc(C3C4=C(CNCC4=O)Nc4n[nH]cc43)c2)cc1` (centres unmarked) [Example 11, 4-(3-p-Tolyloxy-phenyl)-2,4,6,7,8,9-hexahydro-pyrazolo[3,4-b]-1,7-naphthyridin-5-one; compound with trifluoro-acetic acid] has an IC50 of 1130 nM.
For `O=C1CNCC2=C1C(c1ccc(-c3ccc(Cl)cc3)o1)c1c[nH]nc1N2` (centres unmarked) [Example 16, 4-[5-(4-Chloro-phenyl)-furan-2-yl]-2,4,6,7,8,9-hexahydro-pyrazolo[3,4-b]-1,7-naphthyridin-5-one; compound with trifluoro-acetic acid], the IC50 was 1080 nM.
`O=C1CNCC2=C1C(c1ccc(-c3ccccc3C(F)(F)F)o1)c1c[nH]nc1N2` (centres unmarked) [Example 17, 4-[5-(2-trifluoromethyl-phenyl)-furan-2-yl]-2,4,6,7,8,9-hexahydro-pyrazolo[3,4-b]-1,7-naphthyridin-5-one; compound with trifluoro-acetic acid] was tested, and the IC50 was 888 nM.
`O=C1CNCC2=C1C(c1ccc(-c3cccc(C(F)(F)F)c3)o1)c1c[nH]nc1N2` (centres unmarked) [Example 18, 4-[5-(3-trifluoromethyl-phenyl)-furan-2-yl]-2,4,6,7,8,9-hexahydro-pyrazolo[3,4-b]-1,7-naphthyridin-5-one; compound with trifluoro-acetic acid] gave an IC50 of 2150 nM.
In the case of `O=C1CNCC2=C1C(c1ccc(COc3ccc(Cl)c(Cl)c3)o1)c1c[nH]nc1N2` (centres unmarked) [Example 19, 4-[5-(3,4-Dichloro-phenoxymethyl)-furan-2-yl]-2,4,6,7,8,9-hexahydro-pyrazolo[3,4-b]-1,7-naphthyridin-5-one; compound with trifluoro-acetic acid], the IC50 is reported as 8390 nM.
In the case of `O=C1CCCC2=C1C(c1cccc(Oc3ccc(Cl)cc3)c1)c1c[nH]nc1N2` (centres unmarked) [Example 22, 4-[3-(4-Chloro-phenoxy)-phenyl]-2,4,6,7,8,9-hexahydro-pyrazolo[3,4-b]quinolin-5-one; compound with trifluoro-acetic acid], the IC50 is reported as 2320 nM.
Molecule `O=C1CCCC2=C1C(c1ccc(-c3cccc(Cl)c3)o1)c1c[nH]nc1N2` (centres unmarked) [Example 23] has an IC50 of 2410 nM.
`O=C1CCCC2=C1C(c1ccc(COc3ccc(Cl)c(Cl)c3)o1)c1c[nH]nc1N2` (centres unmarked) [Example 24, 4-[5-(3,4-Dichloro-phenoxymethyl)-furan-2-yl]-2,4,6,7,8,9-hexahydro-pyrazolo[3,4-b]quinolin-5-one; compound with trifluoro-acetic acid] gave an IC50 of 291 nM.
For `O=C1CCCC2=C1C(c1ccc(-c3cccc(C(F)(F)F)c3)o1)c1c[nH]nc1N2` (centres unmarked) [Example 25, 4-[5-(3-Trifluoromethyl-phenyl)-furan-2-yl]-2,4,6,7,8,9-hexahydro-pyrazolo[3,4-b]quinolin-5-one; compound with trifluoro-acetic acid], the IC50 was 3070 nM.
`O=C1CCCC2=C1C(c1ccc(-c3ccccc3C(F)(F)F)o1)c1c[nH]nc1N2` (centres unmarked) [Example 26, 4-[5-(2-Trifluoromethyl-phenyl)-furan-2-yl]-2,4,6,7,8,9-hexahydro-pyrazolo[3,4-b]quinolin-5-one; compound with trifluoro-acetic acid] showed an IC50 of 1030 nM.
`O=C1CCCC2=C1C(c1ccc(-c3ccc(Cl)cc3)o1)c1c[nH]nc1N2` (centres unmarked) [Example 27, 4-[5-(4-Chloro-phenyl)-furan-2-yl]-2,4,6,7,8,9-hexahydro-pyrazolo[3,4-b]quinolin-5-one; compound with trifluoro-acetic acid] was tested, and the IC50 was 4920 nM.
With `Cn1c2c(c(=O)n(C)c1=O)C(c1cccc(Oc3ccc(Cl)cc3)c1)c1c[nH]nc1N2` (centres unmarked) [Example 43, 4-[3-(4-Chloro-phenoxy)-phenyl]-6,8-dimethyl-2,4,8,9-tetrahydro-1,2,6,8,9-pentaaza-cyclopenta[b]naphthalene-5,7-dione; compound with trifluoro-acetic acid] the IC50 was 9700 nM.
`O=C1CN(CC(O)CN2CCOCC2)CC2=C1C(c1cccc(Oc3ccc(Cl)cc3)c1)c1c[nH]nc1N2` (centres unmarked) [Example 50, 4-[3-(4-Chloro-phenoxy)-phenyl]-7-(2-hydroxy-3-morpholin-4-yl-propyl)-2,4,6,7,8,9-hexahydro-pyrazolo[3,4-b]-1,7-naphthyridin-5-one; compound with trifluoro-acetic acid] showed an IC50 of 227 nM.
For `Cc1noc(C)c1C(=O)N1CC(=O)C2=C(C1)Nc1n[nH]cc1C2c1cccc(Oc2ccc(Cl)cc2)c1` (centres unmarked) [Example 53, 4-[3-(4-Chloro-phenoxy)-phenyl]-7-(3,5-dimethyl-isoxazole-4-carbonyl)-2,4,6,7,8,9-hexahydro-pyrazolo[3,4-b]-1,7-naphthyridin-5-one; compound with trifluoro-acetic acid], the IC50 was 7370 nM.
In the case of `O=C1CN(C(=O)c2ccno2)CC2=C1C(c1cccc(Oc3ccc(Cl)cc3)c1)c1c[nH]nc1N2` (centres unmarked) [Example 54, 4-[3-(4-Chloro-phenoxy)-phenyl]-7-(isoxazole-5-carbonyl)-2,4,6,7,8,9-hexahydro-pyrazolo[3,4-b]-1,7-naphthyridin-5-one; compound with trifluoro-acetic acid], the IC50 is reported as 6100 nM.
`Cc1nnsc1C(=O)N1CC(=O)C2=C(C1)Nc1n[nH]cc1C2c1cccc(Oc2ccc(Cl)cc2)c1` (centres unmarked) [Example 55, 4-[3-(4-Chloro-phenoxy)-phenyl]-7-(4-methyl-[1,2,3]thiadiazole-5-carbonyl)-2,4,6,7,8,9-hexahydro-pyrazolo[3,4-b]-1,7-naphthyridin-5-one; compound with trifluoro-acetic acid] gave an IC50 of 7200 nM.
`O=C1CNCC2=C1C(c1cccc(C(=O)NCc3ccc(OC(F)(F)F)cc3)c1)c1c[nH]nc1N2` (centres unmarked) [Example 60, 3-(5-Oxo-2,4,6,7,8,9-hexahydro-pyrazolo[3,4b]-1,7-naphthyridin-4-yl)-N-(4-trifluoromethoxy-benzyl)-benzamide; compound with trifluoro-acetic acid] showed an IC50 of 6500 nM.
In the case of `O=C1CNCC2=C1C(c1cccc(C(=O)Nc3ccc(OC(F)(F)F)cc3)c1)c1c[nH]nc1N2` (centres unmarked) [Example 63, 3-(5-Oxo-2,4,6,7,8,9-hexahydro-pyrazolo[3,4b]-1,7-naphthyridin-4-yl)-N-(4-trifluoromethoxy-phenyl)-benzamide; compound with trifluoro-acetic acid], the IC50 is reported as 3300 nM.
For `O=C1CNCC2=C1C(c1cccc(C(=O)Nc3cccc(OC(F)(F)F)c3)c1)c1c[nH]nc1N2` (centres unmarked) [Example 64, 3-(5-Oxo-2,4,6,7,8,9-hexahydro-pyrazolo[3,4b]-1,7-naphthyridin-4-yl)-N-(3-trifluoromethoxy-phenyl)-benzamide; compound with trifluoro-acetic acid], the IC50 was 4100 nM.
`O=C1CNCC2=C1C(c1cccc(NC(=O)c3ccc(Cl)cc3)c1)c1c[nH]nc1N2` (centres unmarked) [Example 65, 4-Chloro-N-[3-(5-Oxo-2,4,6,7,8,9-hexahydro-pyrazolo[3,4b]-1,7-naphthyridin-4-yl)-phenyl]-benzamide; compound with trifluoro-acetic acid] gave an IC50 of 630 nM.
With `O=C(Nc1ccc(Cl)cc1)Nc1cccc(C2C3=C(CNCC3=O)Nc3n[nH]cc32)c1` (centres unmarked) [Example 67, 1-(4-Chloro-phenyl)-3-[3-(5-Oxo-2,4,6,7,8,9-hexahydro-pyrazolo[3,4b]-1,7-naphthyridin-4-yl)-phenyl]-urea; compound with trifluoro-acetic acid] the IC50 was 2000 nM.
